Experimental findings from patent US20110039289A1, “FLUOROGENIC PEPTIDES AND THEIR METHOD OF PRODUCTION” (priority 2008, published 2011) are described below.

A short description of series [1]: Fluorescence lifetime by time correlated single photon counting. The settings on record: 2-aminoacridone attached directly to the α-carboxylic acid group.
Method: The fluorescence lifetimes of the synthesised peptides recorded above were measured by time correlated single photon counting. Peptides were dissolved in aqueous buffer solutions and excited at 405 nm using a pulsed solid state laser diode (Picoquant LDH-405). Fluorescent emission was filtered through a narrow bandpass interference filter (480/20 nm) and single photons were detected by a photomultiplier tube detector (Hamamatsu R7400P) and counted using a fast timing board with histogramming memory (Ortec 9353).
A further series has as its target T1, caspase 3 enzyme (Homo sapiens, UniProt P42574).
T1 sequence (P42574 29-175 limits assumed): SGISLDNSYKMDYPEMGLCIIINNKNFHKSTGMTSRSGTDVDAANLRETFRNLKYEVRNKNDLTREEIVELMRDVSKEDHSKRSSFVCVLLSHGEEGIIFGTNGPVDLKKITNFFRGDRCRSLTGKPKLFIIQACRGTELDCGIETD
T1 sequence (P42574 176-277 limits assumed): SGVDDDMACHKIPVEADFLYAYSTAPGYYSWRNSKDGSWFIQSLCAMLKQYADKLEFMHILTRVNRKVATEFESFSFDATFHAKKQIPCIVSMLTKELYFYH
In words: Cleavage of fluorogenic peptides by caspase 3 (Example 3, FIG. 1). In kind it is biochemical. The settings on record: 1 mM Zn2+. The source says:
Caspase 3 cleaves WSDEVD-(2aa2) and WSDEVD-(2aa6) at the second aspartic acid residue.
PT14 peptide is WSDEVD-PT14, a conventionally labeled peptide, where PT14 is the Puretime 14 moiety. PT14 peptide is also known as peptide 10, but is not made in accordance with the method of the present invention. Puretime 14 is available from AssayMetrics Limited, Cardiff, UK.

Regarding `CC(=O)N[C@@H](C)C(=O)Nc1ccc2[nH]c3ccccc3c(=O)c2c1`, the “fluorescence lifetime of adducts of 2-aminoacridone” value in series [1] came to 18.1 nanoseconds. The same measure, in the same setting: to `CC(=O)N[C@@H](Cc1c[nH]c2ccccc12)C(=O)Nc1ccc2[nH]c3ccccc3c(=O)c2c1` belongs 3.0 nanoseconds.

Consider `CC(=O)N[C@@H](Cc1ccc(O)cc1)C(=O)Nc1ccc2[nH]c3ccccc3c(=O)c2c1`, for which the “fluorescence lifetime of adducts of 2-aminoacridone” value in series [1] amounted to 9.4 nanoseconds. Regarding zinc ions [reference compound], the “effect on the action of caspase 3 enzyme” value at caspase 3 enzyme is reported as “inhibited the action of the enzyme”.
